Results from ChEMBL document CHEMBL3992550, “An epigenetic modifier induces production of (10'S)-verruculide B, an inhibitor of protein tyrosine phosphatases by Phoma sp. nov. LG0217, a fungal endophyte of Parkinsonia microphylla” (Bioorg Med Chem, 2017).

What was measured:
[1] = target: Tyrosine-protein phosphatase non-receptor type 6 (Homo sapiens, UniProt P29350); assay: Inhibition of SHP1 (unknown origin) expressed in Escherichia coli BL21(DE3) using pNPP as substrate preincubated for 15 mins followed by substrate addition measured after 10 mins
Tyrosine-protein phosphatase non-receptor type 6, sequence (P29350 whole entry): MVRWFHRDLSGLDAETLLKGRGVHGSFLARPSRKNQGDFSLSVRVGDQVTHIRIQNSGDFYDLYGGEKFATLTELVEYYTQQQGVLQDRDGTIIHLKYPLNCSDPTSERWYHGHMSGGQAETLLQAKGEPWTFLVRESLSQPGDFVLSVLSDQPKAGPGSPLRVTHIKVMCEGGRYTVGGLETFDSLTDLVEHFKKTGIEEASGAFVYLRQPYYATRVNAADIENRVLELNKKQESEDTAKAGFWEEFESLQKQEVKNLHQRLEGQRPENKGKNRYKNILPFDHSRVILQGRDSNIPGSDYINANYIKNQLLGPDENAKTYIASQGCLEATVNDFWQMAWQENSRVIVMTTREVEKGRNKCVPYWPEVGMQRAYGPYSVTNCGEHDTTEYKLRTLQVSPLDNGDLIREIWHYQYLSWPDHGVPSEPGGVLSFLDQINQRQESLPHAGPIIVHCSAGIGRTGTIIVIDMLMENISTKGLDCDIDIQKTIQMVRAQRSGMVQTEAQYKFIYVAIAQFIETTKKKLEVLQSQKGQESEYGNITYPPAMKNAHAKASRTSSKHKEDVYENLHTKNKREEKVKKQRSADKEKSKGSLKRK

[2] = target: T1, Tyrosine-protein phosphatase non-receptor type 1 (Homo sapiens, UniProt P18031); assay: Inhibition of PTP1B (unknown origin) expressed in Escherichia coli BL21(DE3) using pNPP as substrate preincubated for 15 mins followed by substrate addition measured after 10 mins
T1 sequence (P18031 whole entry): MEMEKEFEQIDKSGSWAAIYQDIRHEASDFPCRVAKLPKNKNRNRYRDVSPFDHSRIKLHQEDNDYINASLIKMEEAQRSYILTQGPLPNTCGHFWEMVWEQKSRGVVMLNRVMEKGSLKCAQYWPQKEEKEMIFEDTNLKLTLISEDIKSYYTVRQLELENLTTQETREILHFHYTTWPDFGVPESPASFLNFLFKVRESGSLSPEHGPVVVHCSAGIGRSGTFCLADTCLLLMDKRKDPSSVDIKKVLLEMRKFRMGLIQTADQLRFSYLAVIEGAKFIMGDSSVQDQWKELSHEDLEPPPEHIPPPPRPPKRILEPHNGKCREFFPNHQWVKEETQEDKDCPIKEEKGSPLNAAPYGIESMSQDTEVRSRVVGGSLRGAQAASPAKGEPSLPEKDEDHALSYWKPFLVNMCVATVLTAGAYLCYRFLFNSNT

[3] = target: T2, Tyrosine-protein phosphatase non-receptor type 2 (Homo sapiens, UniProt P17706); assay: Inhibition of TCPTP (unknown origin) expressed in Escherichia coli BL21(DE3) using pNPP as substrate preincubated for 15 mins followed by substrate addition measured after 10 mins
T2 sequence (P17706 whole entry): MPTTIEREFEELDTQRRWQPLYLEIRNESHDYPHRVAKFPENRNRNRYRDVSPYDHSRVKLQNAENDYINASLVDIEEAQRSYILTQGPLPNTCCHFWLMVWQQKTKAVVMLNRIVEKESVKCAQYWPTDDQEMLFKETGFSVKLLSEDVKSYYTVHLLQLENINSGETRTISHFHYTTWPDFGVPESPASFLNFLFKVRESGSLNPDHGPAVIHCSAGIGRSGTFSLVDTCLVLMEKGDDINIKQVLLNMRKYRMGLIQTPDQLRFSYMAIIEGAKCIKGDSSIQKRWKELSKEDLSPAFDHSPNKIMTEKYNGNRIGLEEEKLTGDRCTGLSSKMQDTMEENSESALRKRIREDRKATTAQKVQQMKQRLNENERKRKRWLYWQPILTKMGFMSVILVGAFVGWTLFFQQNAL

IC50 [1]: 8.8 µM
IC50 [2]: 13.7 µM
IC50 [3]: 16.6 µM
SMILES: C/C(=C\Cc1c(O)cc(O)c2c1C[C@@H](C)OC2=O)CC/C=C(\C)CC[C@H](O)C(C)(C)O
